Patent publication US20240116985A1, “STAPLED PEPTIDES AND METHODS THEREOF” (priority 2020, published 2024)
Values after ≈ are worked out from the molar mass of the structure shown. Like-named read-outs stand apart in the source and are kept apart here.

Legend:
[1] = target: T1, full-length beta-Catenin (Uniprot ID P35222) (Homo sapiens, UniProt P35222); experiment: Fluorescence polarization IC50 (beta-catenin / 5FAM-TCF4 10-53 competition); assay type: binding; conditions: fluorescence polarization
T1 construct: 10 nM full-length beta-Catenin (Uniprot ID P35222)
T1 sequence (P35222 1-781): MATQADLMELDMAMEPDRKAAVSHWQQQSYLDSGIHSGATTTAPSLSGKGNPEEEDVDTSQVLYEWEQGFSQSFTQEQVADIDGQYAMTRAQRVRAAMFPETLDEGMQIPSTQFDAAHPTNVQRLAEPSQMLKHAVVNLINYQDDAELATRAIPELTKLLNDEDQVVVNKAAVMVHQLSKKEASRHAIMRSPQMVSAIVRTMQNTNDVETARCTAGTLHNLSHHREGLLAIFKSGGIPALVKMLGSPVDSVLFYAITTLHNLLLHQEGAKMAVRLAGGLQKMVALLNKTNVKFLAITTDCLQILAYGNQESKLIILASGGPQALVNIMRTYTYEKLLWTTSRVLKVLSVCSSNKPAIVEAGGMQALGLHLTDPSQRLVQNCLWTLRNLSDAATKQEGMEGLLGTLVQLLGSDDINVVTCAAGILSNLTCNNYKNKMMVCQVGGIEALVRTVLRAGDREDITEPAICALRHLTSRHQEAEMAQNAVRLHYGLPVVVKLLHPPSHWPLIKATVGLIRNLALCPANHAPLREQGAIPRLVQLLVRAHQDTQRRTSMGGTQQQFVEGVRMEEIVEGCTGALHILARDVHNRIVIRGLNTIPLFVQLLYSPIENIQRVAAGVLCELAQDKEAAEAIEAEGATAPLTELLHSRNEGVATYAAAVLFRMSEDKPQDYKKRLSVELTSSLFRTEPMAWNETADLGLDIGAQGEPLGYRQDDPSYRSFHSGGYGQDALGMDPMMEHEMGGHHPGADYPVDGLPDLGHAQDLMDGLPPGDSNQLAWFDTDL

Solubility in PBS = assay type: physicochemical
How it was run: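 The PBS solution was ultracentrifuged and the supernatant analyzed by HPLC. Its peak area was divided by that of a 50 μM peptide DMSO reference injection and multiplied by 50 uM to give solubility.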

[2] = beta-catenin, read-out: FP EC50

Row | Structure (SMILES) | IC50 ([1]; read-out: beta-Catenin FP IC50) [nM] | Solubility (Solubility in PBS; Solubility (uM)) [µM] | Solubility (Solubility in PBS) [µM] | IC50 [1, 2] [nM]
1 | CC(=O)N1CCC[C@]12CC=CCCCC1(CCCC=CCCCOC(=O)N3CC[C@@](C(=O)N[C@@H](Cc4ccsc4)C(=O)N[C@@H](Cc4csc5ccccc45)C(=O)N[C@@H](CCC(N)=O)C(N)=O)(C3)NC(=O)[C@H](CC(C)C)NC(=O)[C@H](Cc3ccccc3)NC(=O)[C@H](C)NC(=O)[C@H](C)NC(=O)[C@H](CC(=O)O)NC(=O)[C@H](CO)NC1=O)NC(=O)[C@H](CC(C)(C)C)NC(=O)[C@H](CC(=O)O)NC2=O (stereo partly drawn) [I-1209, Ac-PL3-Asp-Npg-B5-Ser-Asp-Ala-Ala-Phe-Leu-PyrS2-3Thi-BztA-Gln-NH2] | 479 | 16 (≈ 30.2 µg/mL) |  | 
2 | CC(=O)N1CCC[C@]12CC=CCCCC1(CCCC=CCCCOC(=O)N3CC[C@@](C(=O)N[C@@H](Cc4ccsc4)C(=O)N[C@@H](Cc4csc5ccccc45)C(=O)N[C@@H](CCC(N)=O)C(N)=O)(C3)NC(=O)[C@H](CC(N)=O)NC(=O)[C@H](Cc3ccccc3)NC(=O)[C@H](C)NC(=O)[C@H](C)NC(=O)[C@H](CC(=O)O)NC(=O)[C@H](CCC(N)=O)NC1=O)NC(=O)[C@H](CC(C)(C)C)NC(=O)[C@H](CC(=O)O)NC2=O (stereo partly drawn) [I-1210, Ac-PL3-Asp-Npg-B5-Gln-Asp-Ala-Ala-Phe-Asn-PyrS2-3Thi-BztA-Gln-NH2] | 56 |  | 50 (≈ 96.6 µg/mL) | 
3 | CC(=O)N1CCC[C@]12CC=CCCCC1(CCCC=CCCCOC(=O)N3CC[C@@](C(=O)N[C@@H](Cc4ccsc4)C(=O)N[C@@H](Cc4csc5ccccc45)C(=O)N[C@@H](CCC(N)=O)C(N)=O)(C3)NC(=O)[C@H](CC(C)C)NC(=O)[C@H](Cc3ccccc3)NC(=O)[C@H](C)NC(=O)[C@H](C)NC(=O)[C@H](CC(=O)O)NC(=O)[C@H](CCC(N)=O)NC1=O)NC(=O)[C@H](CC(C)(C)C)NC(=O)[C@H](CC(=O)O)NC2=O (stereo partly drawn) [I-1211, Ac-PL3-Asp-Npg-B5-Gln-Asp-Ala-Ala-Phe-Leu-PyrS2-3Thi-BztA-Gln-NH2] | 115 | 11 (≈ 21.2 µg/mL) |  | 
4 | CC(=O)N1CCC[C@]12CC=CCCCC1(CCCC=CCCCOC(=O)N3CC[C@@](C(=O)N[C@@H](Cc4ccsc4)C(=O)N[C@@H](Cc4csc5ccccc45)C(=O)N[C@@H](CCC(N)=O)C(N)=O)(C3)NC(=O)[C@H](CC(N)=O)NC(=O)[C@H](Cc3ccccc3)NC(=O)[C@H](C)NC(=O)[C@H](C)NC(=O)[C@H](CC(=O)O)NC(=O)[C@H](CCO)NC1=O)NC(=O)[C@H](CC(C)(C)C)NC(=O)[C@H](CC(=O)O)NC2=O (stereo partly drawn) [I-1214, Ac-PL3-Asp-Npg-B5-Hse-Asp-Ala-Ala-Phe-Asn-PyrS2-3Thi-BztA-Gln-NH2] | 116 |  | 50 (≈ 95.2 µg/mL) | 
5 | CC(=O)N1CCC[C@]12CC=CCCCC1(CCCC=CCCCOC(=O)N3CC[C@@](C(=O)N[C@@H](Cc4ccsc4)C(=O)N[C@@H](Cc4csc5ccccc45)C(=O)N[C@@H](CCC(N)=O)C(N)=O)(C3)NC(=O)[C@H](CC(C)C)NC(=O)[C@H](Cc3ccccc3)NC(=O)[C@H](C)NC(=O)[C@H](C)NC(=O)[C@H](CC(=O)O)NC(=O)[C@H](CCO)NC1=O)NC(=O)[C@H](CC(C)(C)C)NC(=O)[C@H](CC(=O)O)NC2=O (stereo partly drawn) [I-1215, Ac-PL3-Asp-Npg-B5-Hse-Asp-Ala-Ala-Phe-Leu-PyrS2-3Thi-BztA-Gln-NH2] | 216 |  | 10 (≈ 19 µg/mL) | 
6 | CCCCCCCC(=O)N1CCC[C@]12CC=CCCCC1(CCCC=CCCCOC(=O)N3CC[C@@](C(=O)N[C@@H](Cc4ccccc4Cl)C(=O)N[C@@H](Cc4csc5ccccc45)C(=O)N[C@@H](C(N)=O)[C@H](C)O)(C3)NC(=O)[C@H](CC(N)=O)NC(=O)[C@H](Cc3ccccc3)NC(=O)[C@H](C)NC(=O)[C@H](C)NC(=O)[C@H](CC(=O)O)NC(=O)[C@H](CC(=O)O)NC1=O)NC(=O)[C@H](CC(C)(C)C)NC(=O)[C@H](CC(=O)O)NC2=O (stereo partly drawn) [I-1252, Oct-PL3-Asp-Npg-B5-Asp-Asp-Ala-Ala-Phe-Asn-PyrS2-2C1F-BztA-dThr-NH2] | 546 | 44 (≈ 88.2 µg/mL) |  | 
7 | CC(=O)N1CCC[C@]12CC=CCCCC1(CCCC=CCCCCCCCC[C@@](C)(C(=O)N[C@@H](Cc3ccccc3Cl)C(=O)N[C@@H](Cc3csc4ccccc34)C(=O)N[C@H](C(N)=O)[C@@H](C)O)NC(=O)[C@H]([C@@H](C)O)NC(=O)[C@H](Cc3ccccc3)NC(=O)[C@H](C)NC(=O)[C@H](C)NC(=O)[C@H](CC(=O)O)NC(=O)[C@H](CC(=O)O)NC1=O)NC(=O)[C@H](CC(C)(C)C)NC(=O)[C@H](CC(=O)O)NC2=O (stereo partly drawn) [I-1262, Ac-PL3-Asp-Npg-B5-Asp-Asp-Ala-Ala-Phe-Thr-S10-2C1F-BztA-Thr-NH2] | 1120 | 49 (≈ 92.7 µg/mL) |  | 
8 | CC(=O)N1CCC[C@]12CC=CCCCC1(CCCC=CCCCOC(=O)N3CC[C@@](C(=O)N[C@@H](Cc4ccc5ccccc5c4)C(=O)N[C@@H](Cc4csc5ccccc45)C(=O)N[C@@H](CO)C(N)=O)(C3)NC(=O)[C@H]([C@@H](C)O)NC(=O)[C@H](Cc3ccccc3)NC(=O)[C@H](C)NC(=O)[C@H](C)NC(=O)[C@H]([C@@H](C)O)NC(=O)[C@H](CC(=O)O)NC1=O)NC(=O)[C@H](CC(C)(C)C)NC(=O)[C@H](CC(=O)O)NC2=O (stereo partly drawn) [I-1270, Ac-PL3-Asp-Npg-B5-Asp-Thr-Ala-Ala-Phe-Thr-PyrS2-2NapA-BztA-Ser-NH2] | 3700 |  | 10 (≈ 18.9 µg/mL) | 
9 | CC(=O)N1CCC[C@]12CC=CCCCC1(CCCC=CCCCOC(=O)N3CC[C@@](C(=O)N[C@@H](Cc4cccc(C(F)(F)F)c4)C(=O)N[C@@H](Cc4csc5ccccc45)C(=O)N[C@@H](CO)C(N)=O)(C3)NC(=O)[C@H]([C@@H](C)O)NC(=O)[C@H](Cc3ccccc3)NC(=O)[C@H](C)NC(=O)[C@H](C)NC(=O)[C@H]([C@@H](C)O)NC(=O)[C@H](CC(=O)O)NC1=O)NC(=O)[C@H](CC(C)(C)C)NC(=O)[C@H](CC(=O)O)NC2=O (stereo partly drawn) [I-1271, Ac-PL3-Asp-Npg-B5-Asp-Thr-Ala-Ala-Phe-Thr-PyrS2-3F3MeF-BztA-Ser-NH2] | 682 |  | 10 (≈ 19.1 µg/mL) | 

Results, then the compound that gave them:

Row | IC50 ([1]; read-out: beta-Catenin FP IC50) [nM] | Solubility (Solubility in PBS; Solubility (uM)) [µM] | Solubility (Solubility in PBS) [µM] | IC50 [1, 2] [nM] | Structure (SMILES)
10 | 331 | 21 (≈ 38.6 µg/mL) |  |  | CC(=O)N1CCC[C@]12CC=CCCCC1(CCCC=CCCCOC(=O)N3CC[C@@](C(=O)N[C@@H](Cc4ccccc4)C(=O)N[C@@H](Cc4cccc5ccccc45)C(=O)N[C@@H](CO)C(N)=O)(C3)NC(=O)[C@H]([C@@H](C)O)NC(=O)[C@H](Cc3ccccc3)NC(=O)[C@H](C)NC(=O)[C@H](C)NC(=O)[C@H]([C@@H](C)O)NC(=O)[C@H](CC(=O)O)NC1=O)NC(=O)[C@H](CC(C)(C)C)NC(=O)[C@H](CC(=O)O)NC2=O (stereo partly drawn) [I-1272, Ac-PL3-Asp-Npg-B5-Asp-Thr-Ala-Ala-Phe-Thr-PyrS2-Phe-1NapA-Ser-NH2]
11 | 1160 |  | 10 (≈ 20 µg/mL) | 1160 | CC(=O)N1CCC[C@]12CC=CCCCC1(CCCC=CCCCOC(=O)N3CC[C@@](C(=O)N[C@@H](Cc4ccccc4)C(=O)N[C@@H](Cc4csc5ccccc45)C(=O)N[C@@H](CCC(N)=O)C(N)=O)(C3)NC(=O)[C@H](CC(C)C)NC(=O)[C@H](Cc3ccccc3)NC(=O)[C@H](C)NC(=O)[C@H](CCCCNC(C)C)NC(=O)[C@H]([C@@H](C)O)NC(=O)[C@H](CC(=O)O)NC1=O)NC(=O)[C@H](CC(C)(C)C)NC(=O)[C@H](CC(N)=O)NC2=O (stereo partly drawn) [I-1288, Ac-PL3-Asn-Npg-B5-Asp-Thr-iPrLys-Ala-Phe-Leu-PyrS2-Phe-BztA-Gln-NH2]
12 | 3780 |  | 10 (≈ 18.4 µg/mL) | 3780 | CC(=O)N1CCC[C@]12CC=CCCCC1(CCCC=CCCCOC(=O)N3CC[C@@](C(=O)N[C@@H](Cc4ccccc4)C(=O)N[C@@H](Cc4csc5ccccc45)C(=O)N[C@@H](CCC(N)=O)C(N)=O)(C3)NC(=O)[C@H](CC(C)C)NC(=O)[C@H](Cc3ccccc3)NC(=O)[C@H](C)NC(=O)[C@H](C)NC(=O)[C@H]([C@@H](C)O)NC(=O)[C@H](CC(N)=O)NC1=O)NC(=O)[C@H](C)NC(=O)[C@H](CC(=O)O)NC2=O (stereo partly drawn) [I-1296, Ac-PL3-Asp-Ala-B5-Asn-Thr-Ala-Ala-Phe-Leu-PyrS2-Phe-BztA-Gln-NH2]
13 | 6 |  | 50 (≈ 93.3 µg/mL) |  | CC(=O)N1CCC[C@]12CC=CCCCC1(CCCC=CCCCOC(=O)N3CC[C@@](C(=O)N[C@@H](Cc4ccsc4)C(=O)N[C@@H](Cc4csc5ccccc45)C(=O)N[C@H](CO)[C@@H](C)O)(C3)NC(=O)[C@H]([C@@H](C)O)NC(=O)[C@H](Cc3ccccc3)NC(=O)[C@H](C)NC(=O)[C@H](C)NC(=O)[C@H](CC(=O)O)NC(=O)[C@H](CC(=O)O)NC1=O)NC(=O)[C@H](CC(C)(C)C)NC(=O)[C@H](CC(=O)O)NC2=O (stereo partly drawn) [I-1306, Ac-PL3-Asp-Npg-B5-Asp-Asp-Ala-Ala-Phe-Thr-PyrS2-3Thi-BztA-Thro1]
14 | 21 | 20 (≈ 38.6 µg/mL) |  |  | CC(=O)N1CCC[C@]12CC=CCCCC1(CCCC=CCCCOC(=O)N3CC[C@@](C(=O)N[C@@H](Cc4ccccc4Cl)C(=O)N[C@@H](Cc4csc5ccccc45)C(=O)N[C@H](CO)[C@@H](C)O)(C3)NC(=O)[C@H](CC(C)C)NC(=O)[C@H](Cc3ccccc3)NC(=O)[C@H](C)NC(=O)[C@H](C)NC(=O)[C@H](CC(=O)O)NC(=O)[C@H](CC(=O)O)NC1=O)NC(=O)[C@H](CC1CCCCC1)NC(=O)[C@H](CC(=O)O)NC2=O (stereo partly drawn) [I-1307, Ac-PL3-Asp-Cha-B5-Asp-Asp-Ala-Ala-Phe-Leu-PyrS2-2C1F-BztA-Thro1]
